Measured values reported in patent US11046696B2, “Fused pyrimidine compound or salt thereof” (TAIHO PHARMACEUTICAL CO., LTD., priority 2016, dated 2021).

Assay: Evaluation of stability in liver microsome
Settings: mouse liver microsome, 1 μM, 37° C. for 30 minutes

Structure (SMILES) | Remaining (%)
COCc1ccc(NC(=O)c2c(OCC3CCOCC3)n(C3(C)CC3)c3ncnc(N)c23)cc1 [Example 141, 4-amino-N-(4-(methoxymethyl)phenyl)-7-(1-methylcyclopropyl)-6-((tetrahydro-2H-pyran-4-yl)methoxy)-7H-pyrrolo[2,3-d]pyrimidine-5-carboxamide] | 68%
COCc1ccc(NC(=O)c2c(/C=C/CO)n(C3(C)CC3)c3ncnc(N)c23)cc1 [Example 109, (E)-4-amino-6-(3-hydroxyprop-1-en-1-yl)-N-(4-(methoxymethyl)phenyl)-7-(1-methylcyclopropyl)-7H-pyrrolo[2,3-d]pyrimidine-5-carboxamide] | 68%
COCc1ccc(NC(=O)c2c(C)n(C(C)(C)C)c3ncnc(N)c23)cc1 [Example 60, 4-amino-7-(tert-butyl)-N-(4-(methoxymethyl)phenyl)-6-methyl-7H-pyrrolo[2,3-d]pyrimidine-5-carboxamide] | 81%
Nc1ncnc2c1c(C(=O)Nc1ccc(Oc3ccccc3)cc1)cn2C1CCCC1 [Compound 2 of Comparative Examples, 4-amino-7-cyclopentyl-N-(4-phenoxyphenyl)-7H-pyrrolo[2,3-d]pyrimidine-5-carboxamide, reference compound] | 0%
COCc1ccc(NC(=O)c2c(OC[C@H]3CCCO3)n(C3(C)CC3)c3ncnc(N)c23)cc1 [Example 89, (R)-4-amino-N-[4-(methoxymethyl)phenyl]-7-(1-methylcyclopropyl)-6-((tetrahydrofuran-2-yl)methoxy)-7H-pyrrolo[2,3-d]pyrimidine-5-carboxamide] | 69%
COCc1ccc(NC(=O)c2c(OCC3CCCO3)n(C3(C)CC3)c3ncnc(N)c23)cc1 (stereo not drawn) [Example 135, 4-amino-N-(4-(methoxymethyl)phenyl)-7-(1-methylcyclopropyl)-6-((tetrahydrofuran-2-yl)methoxy)-7H-pyrrolo[2,3-d]pyrimidine-5-carboxamide] | 67%
COCc1ccc(NC(=O)c2c(C#CC3CCOCC3)n(C3(C)CC3)c3ncnc(N)c23)cc1F [Example 205, 4-amino-N-(3-fluoro-4-(methoxymethyl)phenyl)-7-(1-methylcyclopropyl)-6-((tetrahydro-2H-pyran-4-yl)ethynyl)-7H-pyrrolo[2,3-d]pyrimidine-5-carboxamide] | 58%
COCc1ccc(NC(=O)c2c(C#CCC3CCOCC3)n(C3(C)CC3)c3ncnc(N)c23)cc1 [Example 152, 4-amino-N-(4-(methoxymethyl)phenyl)-7-(1-methylcyclopropyl)-6-(3-(tetrahydro-2H-pyran-4-yl)prop-1-yn-1-yl)-7H-pyrrolo[2,3-d]pyrimidine-5-carboxamide] | 57%
COCc1ccc(NC(=O)c2c(-c3ccc(N4CCN(C)CC4)cc3)n(C3(C)CC3)c3ncnc(N)c23)cc1 [Example 171, 4-amino-N-(4-(methoxymethyl)phenyl)-7-(1-methylcyclopropyl)-6-(4-(4-methylpiperazin-1-yl)phenyl)-7H-pyrrolo[2,3-d]pyrimidine-5-carboxamide] | 77%
COCc1ccc(NC(=O)c2cn(C(C)(C)C)c3ncnc(N)c23)c(OC)c1 [Example 33, 4-amino-7-(tert-butyl)-N-(2-methoxy-4-(methoxymethyl)phenyl)-7H-pyrrolo[2,3-d]pyrimidine-5-carboxamide] | 57%
COCc1ccc(NC(=O)c2c(OCC3CCCCO3)n(C3(C)CC3)c3ncnc(N)c23)cc1 (stereo not drawn) [Example 102, 4-amino-N-(4-(methoxymethyl)phenyl)-7-(1-methylcyclopropyl)-6-((tetrahydro-2H-pyran-2-yl)methoxy)-7H-pyrrolo[2,3-d]pyrimidine-5-carboxamide] | 60%
COCc1ccc(NC(=O)c2c(OCC3CCCC3)n(C3(C)CC3)c3ncnc(N)c23)cc1 [Example 140, 4-amino-6-(cyclopentylmethoxy)-N-(4-(methoxymethyl)phenyl)-7-(1-methylcyclopropyl)-7H-pyrrolo[2,3-d] pyrimidine-5-carboxamide] | 52%
COCc1ccc(NC(=O)c2c(C#CCC3CCCCC3)n(C3(C)CC3)c3ncnc(N)c23)cc1 [Example 199, 4-amino-6-(3-cyclohexylprop-1-yn-1-yl)-N-(4-(methoxymethyl)phenyl)-7-(1-methylcyclopropyl)-7H-pyrrolo[2,3-d]pyrimidine-5-carboxamide] | 80%
COCc1ccc(NC(=O)c2cn(C(C)(C)CF)c3ncnc(N)c23)cc1 [Example 26, 4-amino-7-(1-fluoro-2-methylpropan-2-yl)-N-(4-(methoxymethyl)phenyl)-7H-pyrrolo[2,3-d]pyrimidine-5-carboxamide] | 60%
COCc1ccc(NC(=O)c2c(OC[C@@H]3CCCO3)n(C3(C)CC3)c3ncnc(N)c23)cc1 [Example 97, (S)-4-amino-N-(4-(methoxymethyl)phenyl)-7-(1-methylcyclopropyl)-6-((tetrahydrofuran-2-yl)methoxy)-7H-pyrrolo[2,3-d]pyrimidine-5-carboxamide] | 70%
COCc1ccc(NC(=O)c2cn(C(C)(C)C)c3ncnc(N)c23)cc1 [Example 2, 4-amino-7-(tert-butyl)-N-(4-(methoxymethyl)phenyl)-7H-pyrrolo[2,3-d]pyrimidine-5-carboxamide] | 64%
COCc1ccc(NC(=O)c2c(C#CCN3CC[S+]([O-])CC3)n(C3(C)CC3)c3ncnc(N)c23)cc1 [Example 178, 4-amino-N-(4-(methoxymethyl)phenyl)-7-(1-methylcyclopropyl)-6-(3-(1-oxidethiomorpholino)prop-1-yn-1-yl)-7H-pyrrolo[2,3-d]pyrimidine-5-carboxamide] | 88%

The remaining lines, values ahead:

Remaining (%) | Structure (SMILES)
70% | CCOc1c(C(=O)Nc2ccc(COC)cc2)c2c(N)ncnc2n1C1(C)CC1 [Example 127, 4-amino-6-ethoxy-N-(4-(methoxymethyl)phenyl)-7-(1-methylcyclopropyl)-7H-pyrrolo[2,3-d]pyrimidine-5-carboxamide]
79% | COCc1ccc(NC(=O)c2c(C#Cc3cnn(C(C)C)c3)n(C3(C)CC3)c3ncnc(N)c23)cc1 [Example 144, 4-amino-6-((1-isopropyl-1H-pyrazol-4-yl)ethynyl)-N-(4-(methoxymethyl)phenyl)-7-(1-methylcyclopropyl)-7H-pyrrolo[2,3-d]pyrimidine-5-carboxamide]
82% | COCc1ccc(NC(=O)c2c(C#Cc3cnc4[nH]ccc4c3)n(C3(C)CC3)c3ncnc(N)c23)cc1 [Example 128, 6-((1H-pyrrolo[2,3-b]pyridin-5-yl)ethynyl)-4-amino-N-(4-(methoxymethyl)phenyl)-7-(1-methylcyclopropyl)-7H-pyrrolo[2,3-d]pyrimidine-5-carboxamide]
60% | COCc1ccc(NC(=O)c2c(C#CCC3(O)CCC3)n(C3(C)CC3)c3ncnc(N)c23)cc1 [Example 103, 4-amino-6-(3-(1-hydroxycyclobutyl)prop-1-yn-1-yl)-N-(4-(methoxymethyl)phenyl)-7-(1-methylcyclopropyl)-7H-pyrrolo[2,3-d]pyrimidine-5-carboxamide]
81% | COCc1ccc(NC(=O)c2c(-c3cccnc3)n(C3(C)CC3)c3ncnc(N)c23)cc1 [Example 61, 4-amino-N-(4-(methoxymethyl)phenyl)-7-(1-methylcyclopropyl)-6-(pyridin-3-yl)-7H-pyrrolo[2,3-d]pyrimidine-5-carboxamide]
74% | COCc1ccc(NC(=O)c2c(C#CCC3(O)COC3)n(C3(C)CC3)c3ncnc(N)c23)cc1 [Example 125, 4-amino-6-(3-(3-hydroxyoxetan-3-yl)prop-1-yn-1-yl)-N-(4-(methoxymethyl)phenyl)-7-(1-methylcyclopropyl)-7H-pyrrolo[2,3-d]pyrimidine-5-carboxamide]
72% | COCc1ccc(NC(=O)c2c(-c3ccc(CO)cc3)n(C3(C)CC3)c3ncnc(N)c23)cc1 [Example 145, 4-amino-6-(4-(hydroxymethyl)phenyl)-N-(4-(methoxymethyl)phenyl)-7-(1-methylcyclopropyl)-7H-pyrrolo[2,3-d]pyrimidine-5-carboxamide]
62% | COCc1ccc(NC(=O)c2c(C#Cc3cccc(NCc4ccncc4)c3)n(C3(C)CC3)c3ncnc(N)c23)cc1 [Example 122, 4-amino-N-(4-(methoxymethyl)phenyl)-7-(1-methylcyclopropyl)-6-((3-((pyridin-4-ylmethyl)amino)phenyl)ethynyl)-7H-pyrrolo[2,3-d]pyrimidine-5-carboxamide]
61% | COCc1ccc(NC(=O)c2c(C#Cc3ccccn3)n(C3(C)CC3)c3ncnc(N)c23)cc1 [Example 172, 4-amino-N-[4-(methoxymethyl)phenyl]-7-(1-methylcyclopropyl)-6-(pyridin-2-ylethynyl)-7H-pyrrolo[2,3-d]pyrimidine-5-carboxamide]
68% | COCc1ccc(NC(=O)c2c(C#CCC(C)O)n(C3(C)CC3)c3ncnc(N)c23)cc1 (stereo not drawn) [Example 188, 4-amino-6-(4-hydroxypent-1-yn-1-yl)-N-(4-(methoxymethyl)phenyl)-7-(1-methylcyclopropyl)-7H-pyrrolo[2,3-d]pyrimidine-5-carboxamide]
86% | COCc1ccc(NC(=O)c2c(OC)n(C3(C)CC3)c3ncnc(N)c23)cc1 [Example 57, 4-amino-6-methoxy-N-[4-(methoxymethyl)phenyl]-7-(1-methylcyclopropyl)-7H-pyrrolo[2,3-d]pyrimidine-5-carboxamide]
76% | COCc1ccc(NC(=O)c2c(C#Cc3ccccc3)n(C3(C)CC3)c3ncnc(N)c23)cc1 [Example 162, 4-amino-N-(4-(methoxymethyl)phenyl)-7-(1-methylcyclopropyl)-6-(phenylethynyl)-7H-pyrrolo[2,3-d]pyrimidine-5-carboxamide]
53% | COCc1ccc(NC(=O)c2c(C#Cc3cncn3C)n(C3(C)CC3)c3ncnc(N)c23)cc1 [Example 93, 4-amino-N-(4-(methoxymethyl)phenyl)-6-((1-methyl-1H-imidazol-5-yl)ethynyl)-7-(1-methylcyclopropyl)-7H-pyrrolo[2,3-d]pyrimidine-5-carboxamide]
